The results in this text go back to PMC7059139, “Inhibiting MARSs reduces hyperhomocysteinemia‐associated neural tube and congenital heart defects” (EMBO Molecular Medicine, 2020).

One experiment concerns the target T1, MARS2 (Mus musculus, UniProt Q499X9).
T1 construct: Flag-tagged, cDNA NM_175439.3
T1 sequence (Q499X9 47-586): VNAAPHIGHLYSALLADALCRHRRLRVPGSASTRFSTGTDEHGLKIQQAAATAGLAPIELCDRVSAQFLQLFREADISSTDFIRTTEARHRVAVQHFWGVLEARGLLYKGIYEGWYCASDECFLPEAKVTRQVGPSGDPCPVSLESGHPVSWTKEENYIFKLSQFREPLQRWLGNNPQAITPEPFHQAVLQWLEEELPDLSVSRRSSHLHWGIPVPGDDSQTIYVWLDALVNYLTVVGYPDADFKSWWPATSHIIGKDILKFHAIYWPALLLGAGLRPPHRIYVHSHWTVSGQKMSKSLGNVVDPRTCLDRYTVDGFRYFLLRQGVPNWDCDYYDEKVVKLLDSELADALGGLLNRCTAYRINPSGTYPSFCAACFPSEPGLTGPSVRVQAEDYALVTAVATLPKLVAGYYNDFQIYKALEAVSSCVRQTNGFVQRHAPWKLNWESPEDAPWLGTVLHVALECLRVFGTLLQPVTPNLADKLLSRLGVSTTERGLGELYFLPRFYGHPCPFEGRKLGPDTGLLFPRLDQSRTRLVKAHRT
Description: in vitro HTL production from Hcy ([…]), thin layer chromatography. The format is biochemical.

The target in experiment [1] is T2, MARS (methionyl-tRNA synthetase) (Homo sapiens, UniProt P56192).
T2 construct: gene MARS1; Flag-tagged, cDNA NM_004990.3
T2 sequence (P56192 1-900): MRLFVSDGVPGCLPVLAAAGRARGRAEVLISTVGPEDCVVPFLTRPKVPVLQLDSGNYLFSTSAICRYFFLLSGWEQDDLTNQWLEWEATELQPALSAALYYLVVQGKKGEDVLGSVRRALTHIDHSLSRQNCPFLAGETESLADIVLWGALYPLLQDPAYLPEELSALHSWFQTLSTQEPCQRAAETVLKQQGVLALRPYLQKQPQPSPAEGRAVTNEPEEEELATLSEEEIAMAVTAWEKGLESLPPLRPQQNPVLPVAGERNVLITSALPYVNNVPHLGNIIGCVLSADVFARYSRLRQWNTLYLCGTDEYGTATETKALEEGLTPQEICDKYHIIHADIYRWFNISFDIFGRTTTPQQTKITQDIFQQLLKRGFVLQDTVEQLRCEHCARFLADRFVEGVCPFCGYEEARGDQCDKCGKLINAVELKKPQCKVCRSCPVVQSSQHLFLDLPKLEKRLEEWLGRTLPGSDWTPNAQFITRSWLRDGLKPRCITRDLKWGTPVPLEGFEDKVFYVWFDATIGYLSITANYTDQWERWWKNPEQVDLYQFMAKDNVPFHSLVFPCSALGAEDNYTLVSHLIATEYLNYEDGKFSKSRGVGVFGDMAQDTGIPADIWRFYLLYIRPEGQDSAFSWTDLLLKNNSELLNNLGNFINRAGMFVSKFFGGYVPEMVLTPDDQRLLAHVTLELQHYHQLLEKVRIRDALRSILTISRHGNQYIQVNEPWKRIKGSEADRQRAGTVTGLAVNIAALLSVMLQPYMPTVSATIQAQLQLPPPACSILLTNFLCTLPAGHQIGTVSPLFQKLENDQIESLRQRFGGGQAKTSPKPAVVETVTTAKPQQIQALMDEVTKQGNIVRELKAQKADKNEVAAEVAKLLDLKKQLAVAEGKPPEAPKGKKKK
The experiment is described as above. The format is biochemical.

In general, IC50 refers to the concentration that gives 50% inhibition. A lower IC50 goes with greater potency in that assay. Turning to `NC(=O)CSCCC(N)C(=O)O` (racemic) [compound 5, AHT], the figures for the half-maximal inhibitory concentration (IC50) (against MARS2; in experiment [1]) were 40 µM and 36 µM, respectively.
